Laboratory results: PubChem BioAssay AID1259407 (Chemical Carcinogenesis Research Information System (CCRIS), 2018)
The source made the active and inactive calls. The rule behind the calls is not given here.

Tested on: CCRIS mutagenicity, Ames/micronucleus/aberration tests
Assay: CCRIS mutagenicity studies
[1] = Test System: AMES SALMONELLA TYPHIMURIUM, Strain/Indicator: TA97, Metabolic Activation: NONE, Method: PREINCUBATION
[2] = Test System: AMES SALMONELLA TYPHIMURIUM, Strain/Indicator: TA98, Metabolic Activation: NONE, Method: PREINCUBATION
[3] = Test System: AMES SALMONELLA TYPHIMURIUM, Strain/Indicator: TA100, Metabolic Activation: NONE, Method: PREINCUBATION
[4] = Test System: AMES SALMONELLA TYPHIMURIUM, Strain/Indicator: TA1535, Metabolic Activation: NONE, Method: PREINCUBATION
[5] = Test System: AMES SALMONELLA TYPHIMURIUM, Strain/Indicator: TA1537, Metabolic Activation: NONE, Method: PREINCUBATION
[6] = Test System: AMES SALMONELLA TYPHIMURIUM, Strain/Indicator: TA98, Metabolic Activation: NONE, Method: STANDARD PLATE
[7] = Test System: AMES SALMONELLA TYPHIMURIUM, Strain/Indicator: TA100, Metabolic Activation: NONE, Method: STANDARD PLATE

Which results are given for C1COC1?
mutagenic call (Test System: AMES SALMONELLA TYPHIMURIUM, Strain/Indicator: TA97, Metabolic Activation: HAMSTER, LIVER, S-9, AROCLOR 1254 (30%), Method: PREINCUBATION): inactive; negative; mutagenic call [1]: inactive; negative; mutagenic call (Test System: AMES SALMONELLA TYPHIMURIUM, Strain/Indicator: TA97, Metabolic Activation: RAT, LIVER, S-9, AROCLOR 1254 (30%), Method: PREINCUBATION): inactive; negative; mutagenic call (Test System: AMES SALMONELLA TYPHIMURIUM, Strain/Indicator: TA98, Metabolic Activation: HAMSTER, LIVER, S-9, AROCLOR 1254 (30%), Method: PREINCUBATION): inactive; negative; mutagenic call [2]: inactive; negative; mutagenic call (Test System: AMES SALMONELLA TYPHIMURIUM, Strain/Indicator: TA98, Metabolic Activation: RAT, LIVER, S-9, AROCLOR 1254 (30%), Method: PREINCUBATION): inactive; negative; mutagenic call (Test System: AMES SALMONELLA TYPHIMURIUM, Strain/Indicator: TA100, Metabolic Activation: HAMSTER, LIVER, S-9, AROCLOR 1254 (30%), Method: PREINCUBATION): inactive; negative; mutagenic call [3]: inactive; negative; mutagenic call (Test System: AMES SALMONELLA TYPHIMURIUM, Strain/Indicator: TA100, Metabolic Activation: RAT, LIVER, S-9, AROCLOR 1254 (30%), Method: PREINCUBATION): inactive; negative; mutagenic call (Test System: AMES SALMONELLA TYPHIMURIUM, Strain/Indicator: TA1535, Metabolic Activation: HAMSTER, LIVER, S-9, AROCLOR 1254 (10 OR 30%), Method: PREINCUBATION): active; positive; mutagenic call [4]: inactive; negative; mutagenic call (Test System: AMES SALMONELLA TYPHIMURIUM, Strain/Indicator: TA1535, Metabolic Activation: RAT, LIVER, S-9, AROCLOR 1254 (10 OR 30%), Method: PREINCUBATION): active; positive; mutagenic call (Test System: AMES SALMONELLA TYPHIMURIUM, Strain/Indicator: TA1537, Metabolic Activation: HAMSTER, LIVER, S-9, AROCLOR 1254 (30%), Method: PREINCUBATION): inactive; negative; mutagenic call [5]: inactive; negative; mutagenic call (Test System: AMES SALMONELLA TYPHIMURIUM, Strain/Indicator: TA1537, Metabolic Activation: RAT, LIVER, S-9, AROCLOR 1254 (30%), Method: PREINCUBATION): inactive; negative

Which mutagenic call [6] does the source give for ONc1cccc2ccccc12 here?
The mutagenic call was “active; positive”.

What about the mutagenic call [7] of the same molecule?
Its mutagenic call is “active; positive”.

How did the mutagenic call (Test System: CHINESE HAMSTER V-79, Strain/Indicator: V-79 (HGPRT)/6-THIOGUANINE, Metabolic Activation: NONE) turn out when Brc1cc(-c2cc(Br)c(Br)c(Br)c2)cc(Br)c1Br was run?
The mutagenic call was “inactive; negative”.

Clc1nncc2ccccc12 was tested. Which mutagenic call [2] did it give?
Its mutagenic call is “inactive; negative”.

And the mutagenic call (Test System: AMES SALMONELLA TYPHIMURIUM, Strain/Indicator: TA98, Metabolic Activation: RAT, LIVER, S-9, PCB, Method: PREINCUBATION)?
The mutagenic call was “inactive; negative”.

What about the mutagenic call [3] of the same molecule?
The mutagenic call was “inactive; negative”.

What about the mutagenic call (Test System: AMES SALMONELLA TYPHIMURIUM, Strain/Indicator: TA100, Metabolic Activation: RAT, LIVER, S-9, PCB, Method: PREINCUBATION) of the same molecule?
Its mutagenic call is “inactive; negative”.

Which mutagenic call [1] does the source give for CCOc1cc(C=O)ccc1O here?
The mutagenic call was “inactive; negative”.

And the mutagenic call (Test System: AMES SALMONELLA TYPHIMURIUM, Strain/Indicator: TA97, Metabolic Activation: RAT, LIVER, S-9, AROCLOR 1254, Method: PREINCUBATION)?
Its mutagenic call is “inactive; negative”.

And the mutagenic call [2]?
Its mutagenic call is “inactive; negative”.

What about the mutagenic call (Test System: AMES SALMONELLA TYPHIMURIUM, Strain/Indicator: TA98, Metabolic Activation: RAT, LIVER, S-9, PHENOBARBITAL AND BETA-NAPHTHOFLAVONE, Method: PREINCUBATION) of the same molecule?
Its mutagenic call is “inactive; negative”.

And the mutagenic call [3]?
The mutagenic call was “inactive; negative”.

What about the mutagenic call (Test System: AMES SALMONELLA TYPHIMURIUM, Strain/Indicator: TA100, Metabolic Activation: RAT, LIVER, S-9, PHENOBARBITAL AND BETA-NAPHTHOFLAVONE, Method: PREINCUBATION) of the same molecule?
Its mutagenic call is “inactive; negative”.

What about the mutagenic call (Test System: AMES SALMONELLA TYPHIMURIUM, Strain/Indicator: TA102, Metabolic Activation: NONE, Method: PREINCUBATION) of the same molecule?
The mutagenic call was “inactive; negative”.

What about the mutagenic call (Test System: AMES SALMONELLA TYPHIMURIUM, Strain/Indicator: TA102, Metabolic Activation: RAT, LIVER, S-9, AROCLOR 1254, Method: PREINCUBATION) of the same molecule?
The mutagenic call was “inactive; negative”.

What about the mutagenic call (Test System: AMES SALMONELLA TYPHIMURIUM, Strain/Indicator: TA102, Metabolic Activation: RAT, LIVER, S-9, PHENOBARBITAL AND BETA-NAPHTHOFLAVONE, Method: PREINCUBATION) of the same molecule?
The mutagenic call was “inactive; negative”.

And the mutagenic call (Test System: AMES SALMONELLA TYPHIMURIUM, Strain/Indicator: TA104, Metabolic Activation: NONE, Method: PREINCUBATION)?
The mutagenic call was “inactive; negative”.

What about the mutagenic call (Test System: AMES SALMONELLA TYPHIMURIUM, Strain/Indicator: TA104, Metabolic Activation: RAT, LIVER, S-9, PHENOBARBITAL AND BETA-NAPHTHOFLAVONE, Method: PREINCUBATION) of the same molecule?
Its mutagenic call is “inactive; negative”.

What about the mutagenic call [4] of the same molecule?
The mutagenic call was “inactive; negative”.

What about the mutagenic call (Test System: AMES SALMONELLA TYPHIMURIUM, Strain/Indicator: TA1535, Metabolic Activation: RAT, LIVER, S-9, PHENOBARBITAL AND BETA-NAPHTHOFLAVONE, Method: PREINCUBATION) of the same molecule?
The mutagenic call was “inactive; negative”.

And the mutagenic call [5]?
The mutagenic call was “inactive; negative”.

What about the mutagenic call (Test System: AMES SALMONELLA TYPHIMURIUM, Strain/Indicator: TA1537, Metabolic Activation: RAT, LIVER, S-9, PHENOBARBITAL AND BETA-NAPHTHOFLAVONE, Method: PREINCUBATION) of the same molecule?
The mutagenic call was “inactive; negative”.

What about the mutagenic call (Test System: E. COLI, Strain/Indicator: WP2UVRA/PKM101, Metabolic Activation: NONE, Method: PREINCUBATION) of the same molecule?
The mutagenic call was “inactive; negative”.

What about the mutagenic call (Test System: E. COLI, Strain/Indicator: WP2UVRA/PKM101, Metabolic Activation: RAT, LIVER, S-9, PHENOBARBITAL AND BETA-NAPHTHOFLAVONE, Method: PREINCUBATION) of the same molecule?
Its mutagenic call is “inactive; negative”.

What about the mutagenic call (Test System: E. COLI, Strain/Indicator: WP2UVRA, Metabolic Activation: NONE, Method: PREINCUBATION) of the same molecule?
The mutagenic call was “inactive; negative”.

And the mutagenic call (Test System: E. COLI, Strain/Indicator: WP2UVRA, Metabolic Activation: RAT, LIVER, S-9, PHENOBARBITAL AND BETA-NAPHTHOFLAVONE, Method: PREINCUBATION)?
The mutagenic call was “inactive; negative”.

NC(=O)c1ccc(N)cc1 was tested. Which mutagenic call (Test System: AMES SALMONELLA TYPHIMURIUM, Strain/Indicator: TA98, Metabolic Activation: HAMSTER, LIVER, S-9, AROCLOR 1254, Method: STANDARD PLATE) did it give?
Its mutagenic call is “inactive; negative”.

What about the mutagenic call [6] of the same molecule?
Its mutagenic call is “inactive; negative”.

What about the mutagenic call (Test System: AMES SALMONELLA TYPHIMURIUM, Strain/Indicator: TA98, Metabolic Activation: RAT, LIVER, S-9, AROCLOR 1254, Method: STANDARD PLATE) of the same molecule?
Its mutagenic call is “inactive; negative”.

And the mutagenic call (Test System: AMES SALMONELLA TYPHIMURIUM, Strain/Indicator: TA100, Metabolic Activation: HAMSTER, LIVER, S-9, AROCLOR 1254, Method: STANDARD PLATE)?
Its mutagenic call is “inactive; negative”.

And the mutagenic call [7]?
The mutagenic call was “inactive; negative”.

And the mutagenic call (Test System: AMES SALMONELLA TYPHIMURIUM, Strain/Indicator: TA100, Metabolic Activation: RAT, LIVER, S-9, AROCLOR 1254, Method: STANDARD PLATE)?
Its mutagenic call is “inactive; negative”.

What about the mutagenic call (Test System: AMES SALMONELLA TYPHIMURIUM, Strain/Indicator: TA1535, Metabolic Activation: HAMSTER, LIVER, S-9, AROCLOR 1254, Method: STANDARD PLATE) of the same molecule?
Its mutagenic call is “inactive; negative”.

What about the mutagenic call (Test System: AMES SALMONELLA TYPHIMURIUM, Strain/Indicator: TA1535, Metabolic Activation: NONE, Method: STANDARD PLATE) of the same molecule?
The mutagenic call was “inactive; negative”.

What about the mutagenic call (Test System: AMES SALMONELLA TYPHIMURIUM, Strain/Indicator: TA1535, Metabolic Activation: RAT, LIVER, S-9, AROCLOR 1254, Method: STANDARD PLATE) of the same molecule?
Its mutagenic call is “inactive; negative”.

And the mutagenic call (Test System: AMES SALMONELLA TYPHIMURIUM, Strain/Indicator: TA1537, Metabolic Activation: HAMSTER, LIVER, S-9, AROCLOR 1254, Method: STANDARD PLATE)?
The mutagenic call was “inactive; negative”.

And the mutagenic call (Test System: AMES SALMONELLA TYPHIMURIUM, Strain/Indicator: TA1537, Metabolic Activation: NONE, Method: STANDARD PLATE)?
Its mutagenic call is “inactive; negative”.

What about the mutagenic call (Test System: AMES SALMONELLA TYPHIMURIUM, Strain/Indicator: TA1537, Metabolic Activation: RAT, LIVER, S-9, AROCLOR 1254, Method: STANDARD PLATE) of the same molecule?
The mutagenic call was “inactive; negative”.

And the mutagenic call (Test System: AMES SALMONELLA TYPHIMURIUM, Strain/Indicator: TA1538, Metabolic Activation: HAMSTER, LIVER, S-9, AROCLOR 1254, Method: STANDARD PLATE)?
Its mutagenic call is “inactive; negative”.

What about the mutagenic call (Test System: AMES SALMONELLA TYPHIMURIUM, Strain/Indicator: TA1538, Metabolic Activation: NONE, Method: STANDARD PLATE) of the same molecule?
The mutagenic call was “inactive; negative”.

And the mutagenic call (Test System: AMES SALMONELLA TYPHIMURIUM, Strain/Indicator: TA1538, Metabolic Activation: RAT, LIVER, S-9, AROCLOR 1254, Method: STANDARD PLATE)?
The mutagenic call was “inactive; negative”.

And the mutagenic call (Test System: Mouse lymphoma, Strain/Indicator: L5178Y (tk+/tk-), Metabolic Activation: None, Method: Suspension/plate)?
The mutagenic call was “inactive; negative”.

And the mutagenic call (Test System: Mouse lymphoma, Strain/Indicator: L5178Y (tk+/tk-), Metabolic Activation: Rat, Liver, S-9, Aroclor 1254, Method: Suspension/plate)?
The mutagenic call was “inactive; negative”.
